Measured values as given in paper PMC3068151 (PLoS ONE, 2011).

Assays:
EphA2-ephrinA1 binding = target: T1, EphA2-ephrinA1 binding (Mus musculus, UniProt Q03145); test: ELISA EphA2-ephrinA1 binding (displacement and saturation)
T1 construct: we immobilized EphA2-Fc- ectodomain on proper ELISA plates; purchased R&D systems 639-A2 (EphA2-Fc); BT602 (biotinylated ephrinA1-Fc)
Procedure: Our chemical collection (Table S1) was stocked in a 20 mM dimethyl sulfoxide (DMSO) solution and we performed binding assay at a concentration of 200 µM. Only compounds displacing more than 40% ephrinA1 from EphA2 receptor were considered for a full concentration-binding curve. […] The day after wells were washed three times with washing buffer (PBS +0.05% tween20, pH 7.5) and blocked with 300 µl of blocking solution (PBS +0.5% BSA) for 1 hour at 37°C. Compounds were added to the wells at proper concentration in 1% dimethyl sulfoxide (DMSO) and incubated at 37°C for 1 hour. Biotinylated ephrinA1-Fc (R&D BT602) was added at 37°C for 4 hours at 30 ng/ml in displacement assays or in a range from 1 to 2000 ng/ml in saturation studies. […] The reaction was stopped with 3N HCl 100 µl/well and the absorbance was measured using an ELISA plate reader (Sunrise, TECAN, Switzerland) at 450 nm.
The IC50 value was determined using one-site competition non-linear regression and Kd values of the curves with or without antagonists were calculated using one-binding site non-linear regression analysis with Prism software (GraphPad Software Inc.). The Ki was obtained using Schild plot where Log[DR-1] is a function of the negative Log10 of the inhibitor concentration. The Hill's coefficient was calculated using linear fitting to evaluate whether the inhibition was competitive or uncompetitive.
To identify compounds interfering with EphA2-ephrinA1 binding we immobilized EphA2-Fc- ectodomain on proper ELISA plates and binding of biotinylated-ephrin-A1-Fc was detected using the colorimetric reaction developed by streptavidine-HRP and tetramethylbenzidine.

PC3, HT29 and T47D cells = test: MTT cell viability assay; format: cell-based, human; details: concentrations studied in phosphorylation studies; 2 hours incubation
Procedure: Cell viability was evaluated using the MTT colorimetric assay. Cells were plated in 96-well plates at a density of 10^5cells/ml and the day after treated with compounds or 0.5% DMSO for 2, 24, 48, or 72 hours. MTT was added at the final concentration of 1 mg/ml and incubated for 2 hours. The resulting formazan crystals were washed with PBS 100 µl/well and then solubilized with DMSO 200 µl/well. The absorbance was measured at 550 nm using an ELISA plate reader and the results were expressed as the ratio between absorbance of the cell treated with the compounds and untreated cells.
Supplementary file pone.0018128.s003.pdf: Figure S2 Cytotoxicity of bile acids on PC3, HT29 and T47D cells after 2 hours of incubation with the indicated compounds. Data are means±SEM. (PDF) Click here for additional data file.

T1 sequence (Q03145 26-538 limits assumed): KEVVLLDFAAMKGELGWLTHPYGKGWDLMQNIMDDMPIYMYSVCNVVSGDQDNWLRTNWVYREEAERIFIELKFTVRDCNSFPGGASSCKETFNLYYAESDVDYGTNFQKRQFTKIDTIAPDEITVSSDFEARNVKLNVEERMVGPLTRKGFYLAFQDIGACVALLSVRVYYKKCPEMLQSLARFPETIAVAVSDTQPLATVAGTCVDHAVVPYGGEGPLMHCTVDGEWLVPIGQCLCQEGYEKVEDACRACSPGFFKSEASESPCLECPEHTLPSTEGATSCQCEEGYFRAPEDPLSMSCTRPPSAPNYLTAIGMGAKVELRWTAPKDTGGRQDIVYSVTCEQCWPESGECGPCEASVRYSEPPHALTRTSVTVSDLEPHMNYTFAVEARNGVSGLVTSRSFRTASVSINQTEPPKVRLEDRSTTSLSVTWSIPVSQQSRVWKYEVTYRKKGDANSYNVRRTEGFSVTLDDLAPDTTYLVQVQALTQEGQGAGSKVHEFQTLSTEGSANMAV

SMILES: C[C@H](CCC(=O)O)[C@H]1CC[C@H]2[C@@H]3CC[C@@H]4C[C@H](O)CC[C@]4(C)[C@H]3CC[C@]12C [LCA, lithocholic acid]
- reduction of EphA2-ephrinA1 binding (library screening) (EphA2-ephrinA1 binding; 200 µM, incubated 1 hour): significantly reduce
- decrease of EphA2-ephrinA1 binding (EphA2-ephrinA1 binding; bile acids, repeat of the 200 µM experiment): 68.2%±4.3
- Ki (EphA2-ephrinA1 binding; corresponding to pKi, read-out: Ki (Schild plot)): 49 µM
- IC50 (EphA2-ephrinA1 binding; read-out: IC50 displacement of biotinylated-ephrinA1-Fc from EphA2): 57 µM
- slope of Schild plot (EphA2-ephrinA1 binding; saturation curves with increasing LCA, r^2 = 0.9664): 0.8618
- toxicity (MTT) (PC3, HT29 and T47D cells): devoid of any toxicity
